The source made the active and inactive calls. The rule behind the calls is not given here.
Tests used:
[1] = target: T1, Activin receptor type-1 (Homo sapiens) (UniProt Q04771); experiment: Inhibition of human ALK2 at 500 nM by HotSpot assay relative to control
T1 sequence (whole entry): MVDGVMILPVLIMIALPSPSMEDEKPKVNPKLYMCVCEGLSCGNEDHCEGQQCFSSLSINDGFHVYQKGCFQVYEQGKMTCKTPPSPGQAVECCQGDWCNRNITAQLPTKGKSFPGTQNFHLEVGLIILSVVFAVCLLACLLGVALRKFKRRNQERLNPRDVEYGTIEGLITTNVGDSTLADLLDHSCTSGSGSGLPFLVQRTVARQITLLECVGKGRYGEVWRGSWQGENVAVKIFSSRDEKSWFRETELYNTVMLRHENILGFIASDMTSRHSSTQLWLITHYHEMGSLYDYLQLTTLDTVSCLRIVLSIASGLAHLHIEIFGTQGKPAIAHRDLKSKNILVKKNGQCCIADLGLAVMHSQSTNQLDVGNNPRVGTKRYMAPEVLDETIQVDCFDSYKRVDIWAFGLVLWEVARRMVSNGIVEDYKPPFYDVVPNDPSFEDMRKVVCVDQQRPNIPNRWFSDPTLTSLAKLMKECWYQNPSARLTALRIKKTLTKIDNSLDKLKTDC

[2] = target: Tyrosine-protein kinase BTK (Homo sapiens) (UniProt Q06187); experiment: Inhibition of human BTK at 500 nM by HotSpot assay relative to control
[3] = target: Tyrosine-protein kinase Fer (Homo sapiens) (UniProt P16591); experiment: Inhibition of human FER at 500 nM by HotSpot assay relative to control
[4] = target: T2, Rhodopsin kinase GRK7 (Homo sapiens) (UniProt Q8WTQ7); experiment: Inhibition of human GRK7 at 500 nM by HotSpot assay relative to control
T2 sequence (whole entry): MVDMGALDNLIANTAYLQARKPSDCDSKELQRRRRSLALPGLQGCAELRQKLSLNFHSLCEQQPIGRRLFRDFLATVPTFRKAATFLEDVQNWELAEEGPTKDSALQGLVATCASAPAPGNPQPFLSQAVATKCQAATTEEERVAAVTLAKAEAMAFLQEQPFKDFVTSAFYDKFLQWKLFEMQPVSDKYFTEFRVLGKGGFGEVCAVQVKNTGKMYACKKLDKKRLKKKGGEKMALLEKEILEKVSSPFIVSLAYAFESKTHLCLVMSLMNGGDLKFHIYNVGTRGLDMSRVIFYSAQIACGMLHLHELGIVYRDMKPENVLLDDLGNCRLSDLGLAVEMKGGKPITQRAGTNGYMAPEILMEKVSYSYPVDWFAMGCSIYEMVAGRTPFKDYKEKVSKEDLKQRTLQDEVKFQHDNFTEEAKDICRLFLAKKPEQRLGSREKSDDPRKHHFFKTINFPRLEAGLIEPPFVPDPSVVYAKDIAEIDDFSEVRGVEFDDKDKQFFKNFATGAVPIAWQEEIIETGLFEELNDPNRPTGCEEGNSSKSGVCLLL

[5] = target: T3, Inhibitor of nuclear factor kappa-B kinase subunit alpha (Homo sapiens) (UniProt O15111); experiment: Inhibition of human IKKa at 500 nM by HotSpot assay relative to control
T3 sequence (whole entry): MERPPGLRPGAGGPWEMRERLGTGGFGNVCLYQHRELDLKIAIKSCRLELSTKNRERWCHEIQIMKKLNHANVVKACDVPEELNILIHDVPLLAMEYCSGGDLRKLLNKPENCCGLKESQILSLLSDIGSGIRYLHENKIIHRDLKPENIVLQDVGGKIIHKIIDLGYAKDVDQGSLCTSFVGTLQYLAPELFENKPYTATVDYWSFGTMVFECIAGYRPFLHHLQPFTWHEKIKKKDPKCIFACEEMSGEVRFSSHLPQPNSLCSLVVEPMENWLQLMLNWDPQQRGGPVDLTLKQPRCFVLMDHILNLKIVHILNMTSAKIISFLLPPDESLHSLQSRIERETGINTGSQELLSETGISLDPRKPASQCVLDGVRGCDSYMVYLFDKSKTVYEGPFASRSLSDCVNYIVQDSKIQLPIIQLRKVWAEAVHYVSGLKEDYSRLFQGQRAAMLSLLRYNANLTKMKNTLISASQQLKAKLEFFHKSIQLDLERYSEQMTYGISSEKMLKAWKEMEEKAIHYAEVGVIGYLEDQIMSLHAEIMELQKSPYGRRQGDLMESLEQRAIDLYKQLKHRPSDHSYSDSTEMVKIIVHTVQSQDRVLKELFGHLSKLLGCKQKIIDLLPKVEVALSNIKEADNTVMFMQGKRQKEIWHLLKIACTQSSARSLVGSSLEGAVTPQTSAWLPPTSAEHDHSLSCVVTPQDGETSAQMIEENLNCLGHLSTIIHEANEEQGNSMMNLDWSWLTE

[6] = target: Insulin receptor-related protein (Homo sapiens) (UniProt P14616); experiment: Inhibition of human IRR at 500 nM by HotSpot assay relative to control
[7] = target: Serine/threonine-protein kinase PAK 4 (Homo sapiens) (UniProt O96013); experiment: Inhibition of human PAK4 at 500 nM by HotSpot assay relative to control
[8] = target: T4, 3-phosphoinositide-dependent protein kinase 1 (Homo sapiens) (UniProt O15530); experiment: Inhibition of human PDPK1 at 500 nM by HotSpot assay relative to control
T4 sequence (whole entry): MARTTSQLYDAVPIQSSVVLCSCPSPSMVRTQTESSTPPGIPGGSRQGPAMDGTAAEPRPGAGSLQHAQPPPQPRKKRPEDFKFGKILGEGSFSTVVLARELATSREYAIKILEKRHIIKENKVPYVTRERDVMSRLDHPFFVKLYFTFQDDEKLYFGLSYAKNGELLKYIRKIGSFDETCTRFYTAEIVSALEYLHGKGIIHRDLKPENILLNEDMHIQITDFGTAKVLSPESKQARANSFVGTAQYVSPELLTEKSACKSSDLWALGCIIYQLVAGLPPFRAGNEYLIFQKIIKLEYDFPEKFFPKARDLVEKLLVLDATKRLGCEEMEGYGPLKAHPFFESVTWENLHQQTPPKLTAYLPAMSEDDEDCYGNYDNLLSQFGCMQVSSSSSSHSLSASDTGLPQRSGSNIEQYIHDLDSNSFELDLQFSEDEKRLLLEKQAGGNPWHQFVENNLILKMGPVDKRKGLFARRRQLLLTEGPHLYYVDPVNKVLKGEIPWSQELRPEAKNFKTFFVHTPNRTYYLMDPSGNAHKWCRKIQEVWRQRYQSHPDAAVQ

[9] = target: Protein kinase C eta type (Homo sapiens) (UniProt P24723); experiment: Inhibition of human PKCeta at 500 nM by HotSpot assay relative to control
[10] = target: Serine/threonine-protein kinase 33 (Homo sapiens) (UniProt Q9BYT3); experiment: Inhibition of human STK33 at 500 nM by HotSpot assay relative to control
[11] = target: Insulin receptor (Homo sapiens) (UniProt P06213); experiment: Inhibition of wild-type human Insulin receptor activation transfected in insulin-stimulated CHO-K1 cells; assay type: cell-based
Insulin receptor (Homo sapiens), sequence (P06213 28-758 limits assumed): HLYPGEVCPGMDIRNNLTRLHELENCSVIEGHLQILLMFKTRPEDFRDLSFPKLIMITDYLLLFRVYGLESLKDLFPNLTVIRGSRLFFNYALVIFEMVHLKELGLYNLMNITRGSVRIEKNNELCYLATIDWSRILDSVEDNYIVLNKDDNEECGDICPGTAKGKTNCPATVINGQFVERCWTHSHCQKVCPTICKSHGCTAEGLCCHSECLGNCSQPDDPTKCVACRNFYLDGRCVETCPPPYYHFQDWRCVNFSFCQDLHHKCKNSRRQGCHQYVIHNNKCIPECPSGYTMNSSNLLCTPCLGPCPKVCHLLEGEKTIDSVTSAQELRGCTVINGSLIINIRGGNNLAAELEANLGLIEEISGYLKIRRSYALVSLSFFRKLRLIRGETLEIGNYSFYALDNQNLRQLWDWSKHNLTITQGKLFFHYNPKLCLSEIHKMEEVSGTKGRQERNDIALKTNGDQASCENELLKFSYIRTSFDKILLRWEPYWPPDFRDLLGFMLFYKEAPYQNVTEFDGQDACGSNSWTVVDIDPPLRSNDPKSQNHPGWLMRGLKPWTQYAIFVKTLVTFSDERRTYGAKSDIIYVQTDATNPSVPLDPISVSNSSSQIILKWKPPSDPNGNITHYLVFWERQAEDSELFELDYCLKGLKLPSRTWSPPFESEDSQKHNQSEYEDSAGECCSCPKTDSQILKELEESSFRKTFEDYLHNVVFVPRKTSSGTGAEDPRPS
Insulin receptor (Homo sapiens), sequence (P06213 763-1382 limits assumed): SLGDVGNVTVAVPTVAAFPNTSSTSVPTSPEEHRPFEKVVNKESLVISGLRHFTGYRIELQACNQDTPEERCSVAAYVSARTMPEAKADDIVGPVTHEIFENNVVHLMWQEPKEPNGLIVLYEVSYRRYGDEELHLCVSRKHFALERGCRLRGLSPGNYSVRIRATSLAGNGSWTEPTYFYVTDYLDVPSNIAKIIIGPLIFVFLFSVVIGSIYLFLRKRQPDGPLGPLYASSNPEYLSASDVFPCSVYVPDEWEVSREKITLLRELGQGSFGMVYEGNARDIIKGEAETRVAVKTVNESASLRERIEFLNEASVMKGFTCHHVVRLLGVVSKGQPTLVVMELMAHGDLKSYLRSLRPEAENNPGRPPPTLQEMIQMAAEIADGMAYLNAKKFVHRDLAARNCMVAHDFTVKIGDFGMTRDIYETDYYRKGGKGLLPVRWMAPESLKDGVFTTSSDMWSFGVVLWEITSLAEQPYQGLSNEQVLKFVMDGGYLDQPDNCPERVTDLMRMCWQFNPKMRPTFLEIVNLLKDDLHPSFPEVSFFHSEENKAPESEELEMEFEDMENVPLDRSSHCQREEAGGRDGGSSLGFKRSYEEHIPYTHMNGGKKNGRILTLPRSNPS

Insulin receptor-related protein (Homo sapiens), sequence (P14616 27-742 limits assumed): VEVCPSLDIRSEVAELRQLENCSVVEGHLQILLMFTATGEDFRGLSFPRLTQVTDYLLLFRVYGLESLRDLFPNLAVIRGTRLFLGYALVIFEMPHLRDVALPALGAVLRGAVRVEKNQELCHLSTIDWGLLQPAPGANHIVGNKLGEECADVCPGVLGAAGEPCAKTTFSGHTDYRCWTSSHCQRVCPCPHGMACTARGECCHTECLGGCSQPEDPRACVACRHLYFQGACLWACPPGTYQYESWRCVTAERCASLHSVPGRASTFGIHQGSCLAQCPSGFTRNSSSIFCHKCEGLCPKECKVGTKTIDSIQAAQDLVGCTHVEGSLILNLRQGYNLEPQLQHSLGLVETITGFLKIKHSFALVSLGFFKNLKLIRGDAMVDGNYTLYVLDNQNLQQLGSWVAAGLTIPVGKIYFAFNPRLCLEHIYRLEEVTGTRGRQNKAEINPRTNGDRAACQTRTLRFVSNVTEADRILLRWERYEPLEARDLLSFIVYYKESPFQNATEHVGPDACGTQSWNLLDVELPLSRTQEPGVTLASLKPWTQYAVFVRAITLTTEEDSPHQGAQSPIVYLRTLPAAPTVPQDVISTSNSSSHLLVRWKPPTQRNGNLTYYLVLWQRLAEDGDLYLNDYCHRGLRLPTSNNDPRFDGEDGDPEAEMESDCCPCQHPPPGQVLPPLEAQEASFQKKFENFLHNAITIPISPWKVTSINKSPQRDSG
Insulin receptor-related protein (Homo sapiens), sequence (P14616 747-1297 limits assumed): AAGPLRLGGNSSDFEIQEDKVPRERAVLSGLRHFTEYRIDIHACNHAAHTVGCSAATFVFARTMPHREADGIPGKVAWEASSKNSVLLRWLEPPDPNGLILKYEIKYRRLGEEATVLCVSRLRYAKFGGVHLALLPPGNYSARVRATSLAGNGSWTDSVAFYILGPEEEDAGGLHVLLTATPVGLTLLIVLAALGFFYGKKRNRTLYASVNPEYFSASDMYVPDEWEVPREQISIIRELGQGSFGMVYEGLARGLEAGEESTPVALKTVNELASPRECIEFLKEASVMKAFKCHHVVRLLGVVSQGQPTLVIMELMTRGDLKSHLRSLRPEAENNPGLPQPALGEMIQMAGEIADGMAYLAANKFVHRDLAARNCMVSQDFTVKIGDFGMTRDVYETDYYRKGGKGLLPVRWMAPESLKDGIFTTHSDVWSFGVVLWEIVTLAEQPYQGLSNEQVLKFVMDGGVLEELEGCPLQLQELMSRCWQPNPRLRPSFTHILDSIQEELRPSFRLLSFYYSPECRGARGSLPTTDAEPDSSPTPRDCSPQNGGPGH
Tyrosine-protein kinase Fer (Homo sapiens), sequence (P16591 whole entry, looked up): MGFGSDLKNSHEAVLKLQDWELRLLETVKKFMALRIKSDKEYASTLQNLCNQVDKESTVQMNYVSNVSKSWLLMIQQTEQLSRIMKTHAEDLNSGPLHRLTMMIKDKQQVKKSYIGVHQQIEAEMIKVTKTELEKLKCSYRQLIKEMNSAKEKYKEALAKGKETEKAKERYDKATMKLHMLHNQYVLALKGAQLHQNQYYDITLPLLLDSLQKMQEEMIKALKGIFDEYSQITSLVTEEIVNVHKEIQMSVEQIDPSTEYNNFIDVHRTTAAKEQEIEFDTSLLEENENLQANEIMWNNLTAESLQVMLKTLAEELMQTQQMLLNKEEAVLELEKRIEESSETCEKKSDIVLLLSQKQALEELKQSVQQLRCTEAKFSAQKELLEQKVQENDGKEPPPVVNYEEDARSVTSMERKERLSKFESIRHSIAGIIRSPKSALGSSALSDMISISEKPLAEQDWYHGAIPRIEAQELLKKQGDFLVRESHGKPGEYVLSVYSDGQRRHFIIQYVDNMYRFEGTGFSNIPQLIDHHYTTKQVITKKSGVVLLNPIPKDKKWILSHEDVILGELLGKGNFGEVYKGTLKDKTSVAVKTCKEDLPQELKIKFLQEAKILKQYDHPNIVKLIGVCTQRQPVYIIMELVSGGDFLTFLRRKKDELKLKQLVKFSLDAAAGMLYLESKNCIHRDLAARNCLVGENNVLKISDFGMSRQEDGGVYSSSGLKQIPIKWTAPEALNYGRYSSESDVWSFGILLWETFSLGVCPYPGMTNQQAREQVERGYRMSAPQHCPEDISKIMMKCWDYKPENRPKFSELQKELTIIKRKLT
Tyrosine-protein kinase BTK (Homo sapiens), sequence (Q06187 whole entry): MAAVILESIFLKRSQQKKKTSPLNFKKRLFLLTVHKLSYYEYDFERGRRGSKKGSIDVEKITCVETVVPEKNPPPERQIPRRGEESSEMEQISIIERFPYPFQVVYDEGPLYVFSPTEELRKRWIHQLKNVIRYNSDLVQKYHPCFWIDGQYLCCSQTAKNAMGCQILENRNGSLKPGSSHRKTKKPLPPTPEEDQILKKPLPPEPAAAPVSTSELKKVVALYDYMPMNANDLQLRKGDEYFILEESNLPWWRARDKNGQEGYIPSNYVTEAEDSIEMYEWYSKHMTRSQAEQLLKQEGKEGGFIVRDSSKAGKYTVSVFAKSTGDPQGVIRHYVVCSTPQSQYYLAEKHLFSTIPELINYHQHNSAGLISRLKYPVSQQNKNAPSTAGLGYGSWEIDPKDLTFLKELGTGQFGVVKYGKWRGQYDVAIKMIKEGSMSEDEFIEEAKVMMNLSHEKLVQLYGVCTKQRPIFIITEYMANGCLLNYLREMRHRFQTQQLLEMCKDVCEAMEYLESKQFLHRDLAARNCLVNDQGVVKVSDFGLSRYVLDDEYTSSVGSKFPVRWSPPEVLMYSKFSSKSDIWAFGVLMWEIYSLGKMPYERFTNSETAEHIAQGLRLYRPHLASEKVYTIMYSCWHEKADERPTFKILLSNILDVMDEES
Protein kinase C eta type (Homo sapiens), sequence (P24723 whole entry): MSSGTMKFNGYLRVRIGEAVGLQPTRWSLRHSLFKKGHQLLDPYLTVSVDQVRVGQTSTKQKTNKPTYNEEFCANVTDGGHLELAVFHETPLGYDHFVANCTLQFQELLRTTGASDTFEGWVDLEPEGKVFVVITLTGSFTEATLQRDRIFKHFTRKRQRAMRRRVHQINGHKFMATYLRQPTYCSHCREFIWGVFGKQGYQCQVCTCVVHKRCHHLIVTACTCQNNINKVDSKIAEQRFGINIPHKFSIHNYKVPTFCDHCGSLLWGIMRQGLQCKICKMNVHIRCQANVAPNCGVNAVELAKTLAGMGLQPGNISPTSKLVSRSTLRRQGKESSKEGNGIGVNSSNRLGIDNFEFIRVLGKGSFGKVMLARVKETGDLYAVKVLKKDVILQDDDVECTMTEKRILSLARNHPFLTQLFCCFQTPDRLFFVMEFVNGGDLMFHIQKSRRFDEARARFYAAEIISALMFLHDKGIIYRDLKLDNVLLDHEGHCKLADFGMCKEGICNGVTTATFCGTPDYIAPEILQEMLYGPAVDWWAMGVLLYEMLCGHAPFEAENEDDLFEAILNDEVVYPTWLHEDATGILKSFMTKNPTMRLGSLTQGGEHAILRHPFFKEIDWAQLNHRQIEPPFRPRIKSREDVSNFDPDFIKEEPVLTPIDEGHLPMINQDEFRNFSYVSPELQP

SMILES	inhibition [1]	inhibition [2]	inhibition [3]	inhibition [4]	inhibition [5]	inhibition [6]	inhibition [7]	inhibition [8]	inhibition [9]	inhibition [10]	inhibition [11]
Oc1n[nH]c2nnc(-c3c(-c4ccccc4)nn4ccccc34)cc12	0.23%	9.23%	17.4%	6.89%	-0.4%	13.8%	-0.93%	7.43%	3.76%	-0.22%	inactive
Nc1n[nH]c2nnc(-c3c(-c4ccccc4)nn4ccccc34)cc12	-7.19%	6.42%	9.19%	3.29%	2.52%	4.29%	-1.44%	-3.56%	22.8%	-0.39%	inactive
